Measured values reported in patent publication US6737383B1, “Herbicidal oxadiazolidines” (priority 1999, dated 2004).

Legend:
[1] = system: pigweed; assay: Test B pre/postemergence pigweed; assay type: in vivo, Amaranthus retroflexus
In short: (§1)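 Herbicidal effect was estimated by eye on a ten-point control scale after plants spent twelve to sixteen days in a greenhouse following soil or foliar treatment. Foliar sprays targeted plants at one to four leaves; all doses were formulated in a non-phytotoxic solvent with surfactant.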

[2] = system: rice; assay: Test B flood test rice; assay type: in vivo, Oryza sativa
In short: (§2)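 Each value is a visual injury score relative to controls, with 10 meaning complete control and 0 no effect. Evaluation took place twelve to sixteen days after the 2-leaf-stage plants were treated and kept in the greenhouse.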

[3] = system: bamyardgrass; assay: Test B flood test barnyardgrass; assay type: in vivo, Echinochloa crus-galli
In short: as §2

[4] = system: soybean; assay: Test B pre/postemergence soybean; assay type: in vivo, Glycine max
In short: as §1

[5] = system: blackgrass; assay: Test B pre/postemergence blackgrass; assay type: in vivo, Alopecurus myosuroides
In short: as §1

[6] = system: rape; assay: Test B pre/postemergence rape; assay type: in vivo, Brassica napus
In short: as §1

[7] = system: purple nutsedge; assay: Test B pre/postemergence purple nutsedge; assay type: in vivo, Cyperus rotundus
In short: as §1

[8] = system: morningglory; assay: Test B pre/postemergence morningglory; assay type: in vivo, Ipomoea hederacea
In short: as §1

[9] = system: corn; assay: Test B pre/postemergence corn; assay type: in vivo, Zea mays
In short: as §1

[10] = system: smallflower flatsedge; assay: Test B flood test smallflower flatsedge; assay type: in vivo, Cyperus difformis
In short: as §2

[11] = system: cocklebur; assay: Test B pre/postemergence cocklebur; assay type: in vivo, Xanthium strumarium
In short: as §1

[12] = system: wild oat; assay: Test B pre/postemergence wild oat; assay type: in vivo, Avena fatua; conditions: for Plant response rating, Wild oats: Rate 250 g/ha
In short: as §1

[13] = system: velvetleaf; assay: Test B pre/postemergence velvetleaf; assay type: in vivo, Abutilon theophrasti; conditions: for Plant response rating, Velvetleaf: Rate 250 g/ha
In short: as §1

[14] = system: sugar beet; assay: Test B pre/postemergence sugar beet; assay type: in vivo, Beta vulgaris; conditions: for Plant response rating, Sugarbeets: Rate 250 g/ha
In short: as §1

[15] = system: surinam grass; assay: Test B pre/postemergence surinam grass; assay type: in vivo, Brachiaria decumbens
In short: as §1

[16] = system: bedstraw; assay: Test B pre/postemergence bedstraw; assay type: in vivo, Galium aparine
In short: as §1

[17] = Postemergence, Rate 125 g/ha, scale of 0 to 10 where 0 is no effect and 10 is complete control
[18] = Preemergence, Rate 62 g/ha, scale 0 to 10 (0 no effect, 10 complete control)
[19] = Preemergence, Rate 125 g/ha, scale 0 to 10 (0 no effect, 10 complete control)
[20] = Preemergence, Rate 250 g/ha, scale of 0 to 10 where 0 is no effect and 10 is complete control
[21] = Preemergence, Rate 500 g/ha, scale 0 to 10 (0 no effect, 10 complete control)
[22] = Rate 62 g/ha, Postemergence, scale of 0 to 10 where 0 is no effect and 10 is complete control
[23] = Rate 250 g/ha, Postemergence, scale 0 to 10, 0 is no effect, 10 is complete control
[24] = Rate 500 g/ha, Postemergence, scale 0 to 10, 0 no effect, 10 complete control
[25] = Rate 250 g/ha, headed Pre-emergence (flood test species), scale 0 to 10 (0 no effect, 10 complete control)
[26] = Rate 500 g/ha, headed Pre-emergence (flood test species), scale 0 to 10 (0 no effect, 10 complete control)
[27] = Rate 1000 g/ha, Pre-emergence (as headed), scale 0 to 10
[28] = Rate 2000 g/ha, Pre-emergence (as headed), scale 0 to 10
[29] = Postemergence, Rate 250 g/ha, scale 0 to 10, 0 no effect, 10 complete control
[30] = Preemergence, Rate 125 g/ha, 0 is no effect, 10 is complete control
[31] = Preemergence, scale of 0 to 10 where 0 is no effect and 10 is complete control
[32] = Postemergence, scale 0 to 10, 0 is no effect, 10 is complete control
[33] = Postemergence, Rate 62 g/ha, scale 0 to 10, 0 is no effect, 10 is complete control
[34] = Rate 125 g/ha, Postemergence, scale 0 to 10, 0 no effect, 10 complete control

## CCn1c(=O)on(C(=O)N(c2ccc(F)cc2)C(C)C)c1=O [Compound 107]
[1]; [17]
  Redroot pigweed plant response rating: 0
[1]; [18]
  Redroot pigweed plant response rating: 10
[1]; [19]
  Plant response rating, Redroot pigweed: 10
[1]; [20]
  Plant response rating, Redroot pigweed: 10
[1]; [21]
  Redroot pigweed plant response rating: 10
[1]; [22]
  Redroot pigweed plant response rating: 0
[1]; [23]
  Plant response rating, Redroot pigweed: 5
[1]; [24]
  Redroot pigweed plant response rating: 8
[2]; [25]
  Rice plant response rating: 0
[2]; [26]
  Plant response rating, Rice: 0
[2]; [27]
  Rice plant response rating: 0
[2]; [28]
  Rice plant response rating: 0
[3]; [25]
  Barnyardgrass plant response rating: 0
[3]; [26]
  Plant response rating, Barnyardgrass: 0
[3]; [27]
  Barnyardgrass plant response rating: 0
[3]; Rate 2000 g/ha, Pre-emergence (as headed), scale 0 to 10, 0 no effect, 10 complete control
  Barnyardgrass plant response rating: 0
[4]; [17]
  Soybean plant response rating: 4
[4]; [18]
  Soybean plant response rating: 0
[4]; [19]
  Plant response rating, Soybean: 3
[4]; [20]
  Plant response rating, Soybean: 5
[4]; [21]
  Soybean plant response rating: 8
[4]; [22]
  Soybean plant response rating: 3
[4]; [23]
  Plant response rating, Soybean: 4
[4]; [24]
  Soybean plant response rating: 5
[5]; [17]
  Blackgrass plant response rating: 7
[5]; [29]
  Blackgrass plant response rating: 8
[5]; [18]
  Blackgrass plant response rating: 9
[5]; [19]
  Plant response rating, Blackgrass: 10
[5]; [20]
  Plant response rating, Blackgrass: 10
[5]; [21]
  Blackgrass plant response rating: 10
[5]; [22]
  Blackgrass plant response rating: 7
[5]; [24]
  Blackgrass plant response rating: 8
[6]; [17]
  Rape plant response rating: 2
[6]; [29]
  Rape plant response rating: 3
[6]; [18]
  Rape plant response rating: 3
[6]; [19]
  Plant response rating, Rape: 8
[6]; [20]
  Plant response rating, Rape: 9
[6]; [21]
  Rape plant response rating: 10
[6]; [22]
  Rape plant response rating: 0
[6]; [24]
  Rape plant response rating: 8
[7]; [17]
  Nutsedge plant response rating: 3
[7]; [29]
  Nutsedge plant response rating: 5
[7]; [18]
  Nutsedge plant response rating: 0
[7]; [19]
  Plant response rating, Nutsedge: 0
[7]; [20]
  Plant response rating, Nutsedge: 2
[7]; [21]
  Nutsedge plant response rating: 6
[7]; [22]
  Nutsedge plant response rating: 3
[7]; [24]
  Nutsedge plant response rating: 6
[8]; [17]
  Morningglory plant response rating: 3
[8]; [29]
  Morningglory plant response rating: 3
[8]; [18]
  Morningglory plant response rating: 0
[8]; [19]
  Plant response rating, Morningglory: 0
[8]; [20]
  Plant response rating, Morningglory: 2
[8]; [21]
  Morningglory plant response rating: 7
[8]; [22]
  Morningglory plant response rating: 3
[8]; [24]
  Morningglory plant response rating: 3
[9]; [17]
  Corn plant response rating: 2
[9]; [29]
  Corn plant response rating: 5
[9]; [18]
  Corn plant response rating: 4
[9]; [19]
  Plant response rating, Corn: 7
[9]; [20]
  Plant response rating, Corn: 9
[9]; [21]
  Corn plant response rating: 9
[9]; [22]
  Corn plant response rating: 2
[9]; [24]
  Corn plant response rating: 6
[10]; Pre-emergence, Rate 1000 g/ha, scale 0 to 10 (0 no effect, 10 complete control)
  S. Flatsedge plant response rating: 0
[10]; [25]
  S. Flatsedge plant response rating: 0
[10]; [26]
  Plant response rating, S. Flatsedge: 0
[10]; [28]
  S. Flatsedge plant response rating: 5
[11]; [17]
  Cocklebur plant response rating: 0
[11]; [29]
  Cocklebur plant response rating: 1
[11]; [18]
  Cocklebur plant response rating: 0
[11]; [19]
  Plant response rating, Cocklebur: 0
[11]; [20]
  Plant response rating, Cocklebur: 0
[11]; [21]
  Cocklebur plant response rating: 0
[11]; [22]
  Cocklebur plant response rating: 0
[11]; [24]
  Cocklebur plant response rating: 3
[12]; [17]
  Wild oats plant response rating: 3
[12]; [18]
  Wild oats plant response rating: 9
[12]; [30]
  Wild oats plant response rating (0 to 10 scale): 9
[12]; [31]
  Plant response rating, Wild oats: 10
[12]; [21]
  Wild oats plant response rating: 10
[12]; [22]
  Wild oats plant response rating: 0
[12]; [32]
  Plant response rating, Wild oats: 5
[12]; [24]
  Wild oats plant response rating: 9
[13]; [17]
  Velvetleaf plant response rating: 5
[13]; [18]
  Velvetleaf plant response rating: 7
[13]; [30]
  Velvetleaf plant response rating (0 to 10 scale): 10
[13]; [31]
  Plant response rating, Velvetleaf: 10
[13]; [21]
  Velvetleaf plant response rating: 10
[13]; [22]
  Velvetleaf plant response rating: 4
[13]; [32]
  Plant response rating, Velvetleaf: 5
[13]; [24]
  Velvetleaf plant response rating: 7
[14]; [17]
  Sugarbeets plant response rating: 2
[14]; [18]
  Sugarbeets plant response rating: 4
[14]; [30]
  Sugarbeets plant response rating (0 to 10 scale): 7
[14]; [31]
  Plant response rating, Sugarbeets: 10
[14]; [21]
  Sugarbeets plant response rating: 10
[14]; [22]
  Sugarbeets plant response rating: 0
[14]; [32]
  Plant response rating, Sugarbeets: 5
[14]; [24]
  Sugarbeets plant response rating: 7
[15]; [33]
  B. signalgrass plant response rating: 7
[15]; [29]
  B. signalgrass plant response rating: 8
[15]; [18]
  B. signalgrass plant response rating: 5
[15]; [19]
  Plant response rating, B. signalgrass: 7
[15]; [20]
  Plant response rating, B. signalgrass: 10
[15]; [21]
  B. signalgrass plant response rating: 10
[15]; [34]
  B. signalgrass plant response rating: 7
[15]; Rate 500 g/ha, Postemergence, scale of 0 to 10 where 0 is no effect and 10 is complete control
  B. signalgrass plant response rating: 8
[16]; [33]
  Bedstraw plant response rating: 2
[16]; [29]
  Bedstraw plant response rating: 4
[16]; [18]
  Bedstraw plant response rating: 2
[16]; [19]
  Plant response rating, Bedstraw: 7
[16]; [20]
  Plant response rating, Bedstraw: 10
[16]; [21]
  Bedstraw plant response rating: 10
[16]; [34]
  Bedstraw plant response rating: 3
[16]; [24]
  Bedstraw plant response rating: 9
